Data on three compounds can be found in patent publication US20080103123A1, “New compounds” (Biovitrum, priority 2006, published 2008).

Read-outs that look alike come from different tables or passages of the source.

The target in the experiment is T1, human GPR119 receptor (Homo sapiens, UniProt Q8TDV5).
T1 construct: expressed in transfected cells
T1 sequence (Q8TDV5 1-335): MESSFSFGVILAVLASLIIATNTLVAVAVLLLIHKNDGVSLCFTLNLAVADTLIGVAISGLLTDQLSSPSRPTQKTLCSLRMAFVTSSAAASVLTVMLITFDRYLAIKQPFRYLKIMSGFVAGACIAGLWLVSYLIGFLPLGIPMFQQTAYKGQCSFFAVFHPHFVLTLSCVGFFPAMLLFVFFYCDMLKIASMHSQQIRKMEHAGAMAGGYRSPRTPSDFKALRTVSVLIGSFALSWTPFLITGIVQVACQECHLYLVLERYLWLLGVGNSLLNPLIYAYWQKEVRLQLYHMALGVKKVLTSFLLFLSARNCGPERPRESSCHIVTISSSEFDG
As to the kind of experiment: Human GPR119 Activity Assay (cAMP, HTRF). The format is cell-based. The protocol:
Human GPR119 Activity Assay
Agonists to the human GPR119 receptor were characterized by measuring human GPR119 receptor-mediated stimulation of cyclic AMP (cAMP) in HEK 293 cells expressing the human GPR119 receptor.
Briefly, cAMP content was determined using a cAMP kit based on HTRF technology (Homogeneous Time-Resolved Fluorescence, Cisbio Cat. no. 62AM2PEC). HEK293 cells stably expressing the human GPR119 receptor (HEK293-hGPR119 cells) were cultured in DMEM (Gibco # 31966-021) supplemented with 10% Bovine Calf Serum (Hyclone # SH30072.03), and, 500 μg/mL Hygromycin B (Roche Diagnostics 843555). At 80% confluency, cells were detached using Trypsine and aliquoted at a density of 5×10^6 cells/mL in freezing medium (DMEM (Gibco # 31966-021), 20% BCS (Hyclone # SH30072.03), 10% DMSO (Sigma #D2650) and stored at −135° C. On the experimental day, HEK293-hGPR119 cells were thawn and diluted to 0.4×10^6 cells/mL in assay buffer (1×HBSS (Gibco Cat. no. 14025-049), 20 mM Hepes (Gibco Cat. no. 15630-056), 0.1% BSA, pH 7.4) and incubated with test substances for 20 min at room temperature. After addition of HTRF reagents diluted in lysis buffer, the 96- or 384-well plates were incubated 1 hour, followed by measuring the fluorescence ratio at 665 nm/620 nm. Test substances was diluted in compound buffer (1×HBSS (Gibco Cat. no. 14025-049), 20 mM Hepes (Gibco Cat. no. 15630-056), 0.1% BSA, 2 mM IBMX (Sigma-Aldrich Cat. No. 17018, pH 7.4). The potency of the agonist was quantified by determine the concentration that cause 50% activation of hGPR119 evoked increase in cAMP, EC50.

[1] abbreviates: stimulation of cAMP in HEK293 cells stably expressing human GPR119, 20 min at room temperature, HTRF, read-out: EC50 (μM), Agonist potency at the human GPR119.

On to `CS(=O)(=O)c1ccc(-c2ccc(OCC3CCN(C(=O)OCc4ccccc4)CC3)nc2)cc1` [EXAMPLE A2, Benzyl 4-[({5-[4-(methylsulfonyl)phenyl]pyridin-2-yl}oxy)methyl]piperidine-1-carboxylate], for which the EC50 under setting [1] stood at 0.11 µM.

As for `CN(Cc1ccc(-c2ccc(S(C)(=O)=O)cc2)cn1)C1CCN(C(=O)OC(C)(C)C)CC1` [EXAMPLE A39, tert-Butyl 4-[methyl({5-[4-(methylsulfonyl)phenyl]pyridin-2-yl}methyl)amino]-piperidine-1-carboxylate], the EC50 under setting [1] was determined as 0.139 µM.

Regarding `CN(Cc1ccc(-c2ccc(S(C)(=O)=O)cc2)nc1)C1CCN(C(=O)OC(C)(C)C)CC1` [EXAMPLE B2, tert-Butyl 4-[methyl({6-[4-(methylsulfonyl)phenyl]pyridin-3-yl}methyl)amino]-piperidine-1-carboxylate], a half-maximal response (EC50) required 0.022 µM.

For orientation: EC50 means the concentration giving half of the maximal effect.
